Test results as given in patent publication EP0539088B1, “Echinocandin b derivative” (MERCK & CO. INC., priority 1991, dated 1993).
Structures can show the parent of a compound that is named as a salt.

Columns and labels:
Candida albicans MY 1028 = assay: Minimum fungicidal concentration (MFC), microbroth dilution assay in YNBD; format: cell-based; settings: MY1028, 35°C 24 hours, then SDA 24 hours at 28°C
Source text: (§1) The compounds of the present invention are active against many fungi and as previously indicated particularly against Candida species. The antifungal properties may be illustrated with the minimum fungicidal concentration (MFC) determination against certain Candida organisms in a microbroth dilution assay carried out in a Yeast Nitrogen Base (Difco) medium with 1 percent dextrose (YNBD).
(§2) In carrying out the assay, Compound I was solubilized in 10 percent dimethyl sulfoxide (DMSO) and diluted to 2560 µg/ml. The compound was then diluted to 256 µg/ml in YNBD. 0.15 mL of the suspension was dispensed to the top row of a 96-well plate (each well containing 0.15 ml of YNBD) resulting in a drug concentration of 128 µg/ml. Two-fold dilutions were then made from the top row to obtain final drug concentrations ranging from 128 to 0.06 µg/ml. […]
(§3) 96-well microplates were inoculated-using a MIC-2000 (Dynatech) which delivers […] per well yielding a final inoculum per well of 1.5-7.5 x 10^3 cells. […] The minimum inhibitory concentrations (MICs) were recorded as the lowest concentrations of drug showing no visible growth.
(§4) After recording the MIC, the plates were shaken to resuspend the cells. […] The inoculated trays were incubated 24 hours at 28°C and then read for minimum fungicidal concentration (MFC). […]

Candida albicans MY 1055 = assay: as above; format: cell-based; settings: MY1055, 35°C 24 hours, then SDA 24 hours at 28°C
Source text: as §1, §2, §3, §4

red blood cells = assay: Red blood cell lysis, minimum lytic concentration; format: cell-based, human
Source text: A harmful and potentially fatal side reaction of a number of drugs including certain antibiotically active echinocandin compounds is red blood cell lysis. […] The blood cell lysis property may be seen in the determination carried out in the following manner.
The blood employed is a 4 percent suspension of freshly drawn heparinized blood prepared by adding 2 milliliters of blood to 50 milliliters of sterile 5 percent dextrose.
Compound I was solubilized in a small volume of dimethylsulfoxide (DMSO) that was then diluted with distilled water to a final concentration of 5 percent DMSO to obtain a drug suspension of 4.0 mg/ml. A 0.2 milliliter amount of the drug suspension was added to 1.4 milliliters of sterile 5 percent dextrose to obtain the test suspension. A diluent control was also prepared.
A 96-well microliter plate with a well volume of 0.35 ml was used for the assay. Columns 2-12 were filled with 150 µl of sterile 5 percent dextrose. Then, 300 µl of test suspensions were dispensed into the wells in column 1 and serially two-fold diluted in 5 percent dextrose to yield final test concentrations of from 400 to 0.20 µg/ml. […]

[1] = test system: Candida albicans (MY 1055); assay: In vivo kidney CFU reduction in mice infected with Candida albicans; parameters: species or system female DBA/2 mice; settings: 0.4 mg/kg I.P. twice daily for four consecutive days; kidneys after seven days
Procedure: Growth from an overnight SDA culture of Candica albicans MY 1055 was suspended in sterile saline and the cell concentration determined by hemacytometer count and the cell suspension adjusted to 3.75 x 10^5 cells/ml. Then 0.2 milliliter of this suspension was administered I.V. in the tail vein of mice so that the final inoculum was 7.5 x 10^4 cells/mouse.
The assay then was carried out by administering aqueous solutions of Compound I at various concentrations intraperitoneally (I.P.), twice daily (b.i.d.) for four consecutive days to 18 to 20 gram female DBA/2 mice, which previously had been infected with Candida albicans (MY 1055) in the manner described above. Distilled water was administered I.P. to C. albicans challenged mice as controls. After seven days, the mice were sacrificed by carbon dioxide gas, paired kidneys were removed aseptically and placed in sterile polyethylene bags containing 5 milliters of sterile saline. The kidneys were homogenized in the bags, serially diluted in sterile saline and aliquots spread on the surface of SDA plates. The plates were incubated at 35°C for 48 hours and yeast colonies were enumerated for determination of colony forming units (CFU) per gram of kidneys.

With CCC(C)CC(C)CCCCCCCCC(=O)NC1CC(O)C(OCCN)NC(=O)C2C(O)CCN2C(=O)C(C(O)CC(N)=O)NC(=O)C(C(O)C(O)c2ccc(O)cc2)NC(=O)C2CC(O)CN2C(=O)C(C(C)O)NC1=O (centres unmarked) [Compound I, 1-[4-hydroxy-5-aminoethyloxy-N^2-(10,12-dimethyl-1-oxotetradecyl)-ornithine]-5-(3-hydroxyglutamine)-6-(3-hydroxyproline)-echinocandin B trifluoroacetate] the MFC (Candida albicans MY 1028) was 0.25 µg/mL, the MFC (Candida albicans MY 1055) was 0.125 µg/mL and the “red blood cell lysis” value (red blood cells; at concentrations far beyond what would be used for therapeutic purposes) was “no red blood cell lysis”. The “Minimum lytic concentration (MLC)” value (red blood cells; lowest concentration producing complete or partial lysis, 2 hours at room temperature, tested 400 to 0.20 µg/ml) was 400 µg/mL and the “reduction of recoverable Candida CFUs” value [1] was “greater than 99%”.
